Experimental data: BindingDB's records for doi:10.1021/jm00022a004 (H. Lundbeck, 1995)

Biological target: 5-hydroxytryptamine receptor 2A (Rattus norvegicus, UniProt P14842)
Assay: Binding affinity for 5-hydroxytryptamine 2A receptor, activity is expressed as IC50 values.

Chain of 5-hydroxytryptamine receptor 2A (P14842 whole entry): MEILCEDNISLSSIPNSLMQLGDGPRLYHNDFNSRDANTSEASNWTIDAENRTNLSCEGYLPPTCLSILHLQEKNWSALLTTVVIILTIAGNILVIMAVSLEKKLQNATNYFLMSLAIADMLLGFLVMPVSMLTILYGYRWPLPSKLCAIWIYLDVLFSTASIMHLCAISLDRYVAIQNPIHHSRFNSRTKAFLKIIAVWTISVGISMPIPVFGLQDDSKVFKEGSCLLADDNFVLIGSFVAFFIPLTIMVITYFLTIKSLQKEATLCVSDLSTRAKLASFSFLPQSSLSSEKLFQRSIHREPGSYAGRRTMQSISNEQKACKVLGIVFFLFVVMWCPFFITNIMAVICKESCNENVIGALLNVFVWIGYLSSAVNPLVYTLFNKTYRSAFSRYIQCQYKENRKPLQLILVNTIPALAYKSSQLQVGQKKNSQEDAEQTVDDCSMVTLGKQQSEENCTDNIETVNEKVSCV

CC1(C)CN(C2CC(c3ccc(F)cc3)c3ccc(Cl)cc32)CCN1 (stereo unspecified) [1-[6-Chloro-3-(4-fluoro-phenyl)-indan-1-yl]-3,3-dimethyl-piperazine] was tested, and the IC50 was 3.2 nM.
